Test results from patent US20210030761A1, “TREATMENT AND PREVENTION OF ALPHA HERPES VIRUS INFECTION” (THE REGENTS OF THE UNIVERSITY OF COLORADO, a body corporate, priority 2018, published 2021).

Tests used:
VZV = assay: Total VZV DNA in adult primary human perineurial cells (HPNCs); format: cell-based, varicella zoster virus; conditions: 72 HPI
Source text: At 12, 24, 48, and 72 HPI, cells were visualized by light microscopy in the untreated and treated cultures and harvested for DNA.

uninfected HA-sp = conditions: tested at 1-100 μM, data not shown
Description: (§1) Cell Culture and Infection: Primary human spinal astrocytes (HA-sp; Sciencell, Carlsbad, Calif.) were seeded at 5,000 cells/cm' in a basal astrocyte medium containing 2% fetal bovine serum (FBS), 1% astrocyte growth supplement, and 1% 100× penicillin-streptomycin (Sciencell). After 24 hours, medium was changed to basal astrocyte medium containing 0.1% FBS and 1% 100× penicillin-streptomycin that was replenished every 72 hours for 7 days to establish quiescence. On day 7, spinal astrocytes were co-cultivated with VZV-infected spinal astrocytes (40 pfu/mL) or mock-infected spinal astrocytes. […] Light microscopy images to observe a cytopathic effect were obtained at 12, 24, 48 and 72 HPI followed by DNA extraction and PCR quantification of VZV DNA as described below. Substance P ELISA: Substance P was quantitated from mock- and VZV-infected HA-sp using a colorimetric competitive enzyme immunoassay kit according to the manufacturer's instructions (Enzo, Farmingdale, N.Y.). The sensitivity range was 9.76-10,000 pg/mL, as determined by controls run on the same assay as samples. Immunofluorescence Assay: HA-sp were propagated and treated as described above in an ibidi 24-well μ-Plate (ibidi, Martinsried, Germany). […] GFAP and NK-1R were detected using a 1:500 dilution of chicken anti-GFAP (Abcam) and a 1:100 dilution of rabbit anti-NK-1R (Novus Biologicals LLC, Littleton, Colo.), respectively. […]

[1] = test system: VZV-infected primary human spinal astrocytes (HA-sp); assay: Immunocytochemistry of cellular processes and NK-1R localization in VZV-infected HA-sp; format: cell-based; conditions: 3 DPI; 10 μM aprepitant; versus vehicle
Description: as §1

[2] = test system: quiescent uninfected spinal astrocytes; assay: Substance P treatment of uninfected spinal astrocytes: NK-1R distribution by immunofluorescence and process formation by CellTracker Deep Red; format: cell-based, human; conditions: 10^−6 M substance P for 60 minutes
Description: as §1

## C[C@@H](OC[C@@]1(c2ccccc2)CC[C@]2(CCC(=O)N2)CN1)c1cc(C(F)(F)F)cc(C(F)(F)F)c1 [rolapitant]
VZV; treated at 24 HPI
  total VZV DNA: significantly reduced total VZV DNA
VZV; treated at time of infection
  total VZV DNA: significantly reduced total VZV DNA

## C[C@@H](O[C@H]1OCCN(Cc2n[nH]c(=O)[nH]2)[C@H]1c1ccc(F)cc1)c1cc(C(F)(F)F)cc(C(F)(F)F)c1 [aprepitant]
Uninfected HA-sp
  optimal concentration to avoid cell death: 10 µM
[1]
  lamellipodia formation in VZV-infected cells: reduction in lamellipodia formation

## substance P
[2]
  NK-1R localization: detected predominantly in cytoplasm
[2]; CellTracker Deep Red
  lamellipodia formation: lack of lamellipodia
